Columns and labels:
[1] = test system: calluses of the mutant ghy; assay: Redifferentiation from calluses with plant hormones; type: cell-based, Chenopodium quinoa
Description: A medium was produced by partially modifying spinach redifferentiation medium composition reported in the literature (Jinhua Bao (2009) Establishment of Transformation System for Spinach based on Agrobacterium Method and Introduction of Useful Gene, Chiba University Graduate School doctoral dissertation), and was used in the experiment (Table 2). Non-transformed calluses induced from seedling sections of the Kd variety were cultured under preset conditions shown in Table 13. A “+” group for the redifferentiation inducing light condition was cultured in an incubator at 20° C. under 8-h light/16-h dark conditions, and a “−” group was placed in a steel can in an incubator under the same conditions, and was cultured under a light-shielding condition. In groups with GA concentrations of 1 and 2, non-transformed calluses were plated on redifferentiation media supplemented with gibberellin at 1 mg/L and 2 mg/L, respectively.
Transformed calluses were successfully formed in the mutant ghy variety incapable of synthesizing betalain pigments. In view of this, an attempt was made to induce redifferentiation from calluses of the mutant ghy. 2,4-Dichlorophenoxyacetic acid (2,4-D) serving as a plant hormone having an auxin-like action, and benzyladenine and kinetin each serving as a plant hormone having a cytokinin-like action were combined at various concentrations, and redifferentiation was attempted. […] In addition, when the concentrations of both of 2,4-D and the cytokinin-like plant hormone (benzyladenine or kinetin) were increased, hard and rounded calluses were obtained. […] However, redifferentiation of any other organ was not found.

[2] = test system: quinoa (Kd, ghy, rebc, and ghy/rebc); assay: Floral dip/non-cutting-sealing method using improved bacterium, GUS staining of female organs; type: in vivo, Chenopodium quinoa; conditions: mutant ghy/rebc
Description: Bacteria used in the experiment were streaked on LB solid medium supplemented with 100 mg/L kanamycin and 100 mg/L hygromycin, and was cultured at 26° C. under a 24-h dark condition for 2 days (Table 3). The proliferated bacteria were transferred to 50 mL of LB liquid medium supplemented with 100 mg/L kanamycin and 100 mg/L hygromycin (in a 300 mL Erlenmeyer flask), and were cultured using a shaking thermostatic water bath BW201 under the conditions of 26° C., about 24 hours, and about 130 rpm. After the culture, the bacterial culture suspension (OD600=about 2.0) was transferred to a 50 mL conical tube, and centrifuged using Mx-301 Highspeed Refrigerated Micro Centrifuge (10 minutes, […]). The supernatant was discarded, followed by addition of 20 mL of a 5% (w/v) sucrose solution containing Silwet L-77 and resuspension using VORTEX-GENIE 2 to produce a bacterial suspension (results shown in Example 1 and results shown in Example 3 were obtained by inoculation experiments using Silwet L-77 at 0.02% (v/v) and 0.04% (v/v), respectively). At the time of inoculation with the bacterial suspension, quinoa to be used was placed in a sealed container (Mippail (Fuji System Pack, Tokyo, Japan)) filled with water, and the bacterial suspension was dropped onto an ear using P200 Pipetman (Gilson, Manhattan, NY, USA). […]

## O=C(O)COc1ccc(Cl)cc1Cl [2,4-D, 2,4-Dichlorophenoxyacetic acid]
[1]; medium containing only 0.01 mg/L or 0.1 mg/L 2,4-D
  Redifferentiation of adventitious roots: adventitious roots were redifferentiated

## CC1=CC(=O)CC(C)(C)[C@@]1(O)/C=C/C(C)=C\C(=O)O [ABA, Abscisic acid]
[2]; 500 mM ABA added to suspension of MAFF311303pTiMAFF301276ΔT-DNA, without cutting-sealing
  Individuals exhibiting female organ-specific GUS expression: 60%
[2]; 500 mM ABA vs no ABA
  Female organ-specific GUS expression ratio relative to the case of adding no ABA: 6 times

## c1ccc(CNc2ncnc3nc[nH]c23)cc1 [benzyladenine]
[1]; calluses plated in media containing the hormone
  Colour of calluses: turned darker green
[1]; medium containing only 1 mg/L or 2 mg/L benzyladenine
  Redifferentiation of adventitious roots: adventitious roots were redifferentiated

## c1coc(CNc2ncnc3[nH]cnc23)c1 [kinetin]
[1]; medium containing only 1 mg/L kinetin
  Elongation of adventitious roots: showed remarkable elongation of adventitious roots
